The values below are quoted from earlier work in PMC12308805, “Ultrahigh-Throughput Virtual Screening Strategies against PPI Targets: A Case Study of STAT Inhibitors” (Journal of Chemical Information and Modeling, 2025).

The test system of the first data set is STAT3. Particulars: sheet 6QHD_actives_decoys; retrospective screening set for STAT3 SH2 domain (PDB 6QHD); […]; ref DUD-E; cited from earlier work.
In the case of `COc1cc(S(=O)(=O)N2CCCCC2)ccc1N/C=C1/C(=O)NC(=O)N(c2ccccc2)C1=O` [Decoy344], the Type entry is recorded as “Inactive (Decoy)”.

Take `CO[C@@H]1C[C@H](O[C@H]2CC[C@]3(/C=N/CC#N)[C@H]4CC[C@]5(C)[C@@H](C6=CC(=O)OC6)CC[C@]5(O)[C@@H]4CC[C@]3(O)C2)O[C@@H](C)[C@@H]1O` [Decoy348]: the Type result is on record as “Inactive (Decoy)”.

`Cc1ccc(S(=O)(=O)NCCCCNS(=O)(=O)c2ccc(C)c([N+](=O)[O-])c2)cc1[N+](=O)[O-]` [Decoy360]: the Type entry is given as “Inactive (Decoy)”.

`Cc1nccc(NS(=O)(=O)c2ccc(NC(=O)c3cccc(C(=O)Nc4ccc(S(=O)(=O)Nc5ccnc(C)n5)cc4)c3)cc2)n1` [Decoy361]: the Type result is given as “Inactive (Decoy)”.

As for `CCCCCC[C@H]1C(=O)O[C@@H](C)[C@@H](NC(=O)c2cccc(NC=O)c2O)C(=O)O[C@@H](C)[C@H]1OC(=O)CCC` [Decoy385], the Type result is listed as “Inactive (Decoy)”.

For `COc1cc(NS(=O)(=O)c2ccc(NC(=S)NC(=O)c3cc(Cl)cc(Cl)c3)cc2)ncn1` [Decoy392], the Type result is listed as “Inactive (Decoy)”.

The same data set, now with this note: sheet 6QHD_actives_decoys; retrospective screening set for STAT3 SH2 domain (PDB 6QHD); decoys generated with DUD-E and presumed inactive, not tested; ref DUD-E; cited from earlier work.
As to `COC(=O)[C@@H]1[C@H](O)[C@H](C)[C@H](O)O[C@@H]1[C@H](C)[C@H](O)[C@@H](C)/C=C\C=C(/C)C(=O)Nc1c(C)c(OC(C)=O)c2c(c1O)C(=O)C(C)=C1OCOC(/C(C)=C/C(C)=O)=C12` [Decoy345], the Type entry is listed as “Inactive (Decoy)”.

For `CCCCOc1ccc([C@H]2C(C(=O)c3nc4c(C)cccn4c3C)=C(O)C(=O)N2CCOC)cc1OC` [Decoy346], the Type entry was “Inactive (Decoy)”.

As for `CC(=O)O[C@H]1[C@H](O)[C@H]([C@@](C)(O)CC[C@@H](O)C(C)(C)O)[C@@]2(C)CC[C@@]34C[C@@]35CC[C@H](O[C@@H]3OC[C@@H](O)[C@H](O)[C@H]3O)C(C)(C)[C@@H]5CC[C@H]4[C@]12C` [Decoy347], the Type result was “Inactive (Decoy)”.

With `COC(=O)[C@@H](/C(=N/N)C(=O)Nc1cc(Cl)ccc1Cl)c1nc2ccc([N+](=O)[O-])cc2nc1O` [Decoy349], the Type result is listed as “Inactive (Decoy)”.

As to `CN(C)S(=O)(=O)c1cccc(C(=O)NNC(=O)c2cn(-c3ccccc3)nc2-c2cccnc2)c1` [Decoy350], the Type result is listed as “Inactive (Decoy)”.

Consider `COC(=O)c1ccc(NC(=O)CSc2nc(N)c(NC(=O)c3ccc(Br)o3)c(=O)[nH]2)cc1` [Decoy351], for which the Type entry is “Inactive (Decoy)”.

Turning to `COC(=O)CCSCCO[C@@H]1O[C@H](CO)[C@@H](O[C@@H]2O[C@H](CO)[C@@H](O)[C@@H](O)[C@H]2O)[C@@H](O)[C@H]1NC(C)=O` [Decoy352], the Type result is “Inactive (Decoy)”.

For `COC(=O)CCSCCO[C@@H]1O[C@H](CO)[C@@H](O[C@@H]2O[C@H](CO)[C@@H](O)[C@@H](O)[C@H]2O)[C@H](O)[C@@H]1NC(C)=O` [Decoy353], the Type result is reported as “Inactive (Decoy)”.

Take `COC(=O)CCSCCO[C@@H]1O[C@H](CO)[C@@H](O[C@@H]2O[C@H](CO)[C@@H](O)[C@@H](O)[C@H]2O)[C@H](O)[C@H]1NC(C)=O` [Decoy354]: the Type entry is listed as “Inactive (Decoy)”.

As for `COc1ccc(/C=C(\C#N)C(=O)Nc2ccc(S(=O)(=O)Nc3ccc(C)cc3)cc2)cc1OS(=O)(=O)c1ccc(NC(C)=O)cc1` [Decoy355], the Type result is reported as “Inactive (Decoy)”.

For `O=C(O)C[C@H](NC(=O)CN(CCN(CC(=O)O)CC(=O)N[C@@H](CC(=O)O)C(=O)O)CC(=O)O)C(=O)O` [Decoy356], the Type entry is recorded as “Inactive (Decoy)”.

For `COc1ccc(NC(=O)C2=C(C)NC(SCC(=O)Nc3cccc(OC)c3)=C(C#N)[C@@H]2c2ccco2)cc1` [Decoy357], the Type result is “Inactive (Decoy)”.

Consider `CCOC(=O)c1ccc(NC(=O)C/C(C)=N/NC(=O)C(=O)Nc2cccc(Cl)c2C)cc1` [Decoy358], for which the Type result is “Inactive (Decoy)”.

As for `COc1ccc2[nH]cc(CCN/C(=N\C(=O)CS[C@H]3N=N[C@@H](N)S3)Nc3nc(C)cc(C)n3)c2c1` [Decoy359], the Type entry is “Inactive (Decoy)”.

In the case of `COc1cc(C(=O)NCC(=O)N/N=C/c2cc(Br)ccc2OC(=O)c2ccc(C)cc2)cc(OC)c1OC` [Decoy362], the Type result is “Inactive (Decoy)”.

In the case of `CNC(=O)Cn1c(=O)[nH]c(NC)c(C(c2ccc(Cl)cc2)c2c(NC)[nH]c(=O)n(CC(=O)NC)c2=O)c1=O` [Decoy363], the Type result is reported as “Inactive (Decoy)”.

On to `COC(=O)c1sc(S(=O)(=O)NCC(=O)OCC(=O)Nc2cccc(C#N)c2)c(C(=O)OC)c1C` [Decoy364], for which the Type result was “Inactive (Decoy)”.

Consider `O=C(CN(c1cccc([N+](=O)[O-])c1)S(=O)(=O)c1ccccc1)Nc1ccccc1C(=O)NCc1ccco1` [Decoy365], for which the Type result was “Inactive (Decoy)”.

`COC(=O)c1cc(NC(=S)/N=C(/NCCN2CCOCC2)Nc2nc(C)cc(C)n2)cc(C(=O)OC)c1` [Decoy366]: the Type result is reported as “Inactive (Decoy)”.

`C/C=C1/[C@H](O[C@@H]2O[C@H](CO)[C@@H](O)[C@H](O)[C@H]2O)OC=C(C(=O)OC)[C@H]1CC(=O)OCCc1ccc(O)c(O)c1` [Decoy367]: the Type result is recorded as “Inactive (Decoy)”.

Take `CCCCN(CC(=O)Nc1c(-c2ccccc2)c(C)nn1-c1ccc(OC)cc1)C(=O)c1ccc(OC)cc1OC` [Decoy368]: the Type entry is “Inactive (Decoy)”.

As to `C=C1N=C2C[C@H](c3ccc(OC)c(OC)c3)CC(=O)C2[C@H](c2cc(Br)c(O)c(OCC)c2)C1C(=O)OCCOCC` (stereo partly drawn) [Decoy369], the Type result is “Inactive (Decoy)”.

In the case of `C=CCOC(=O)[C@H]1O[C@@H](OC(=O)c2cc(S(N)(=O)=O)c(Cl)cc2NCc2ccco2)[C@H](O)[C@@H](O)[C@@H]1O` [Decoy370], the Type entry is given as “Inactive (Decoy)”.

Regarding `CCOC(=O)c1ccc(NC(=O)CSc2nc3cc(C(=O)OC)ccc3c(=O)n2CCN2CCOCC2)cc1` [Decoy371], the Type result is reported as “Inactive (Decoy)”.

Consider `COc1ccc(C(=O)O[C@H]2[C@@H]3C=CO[C@@H](O[C@@H]4O[C@H](COC(C)=O)[C@@H](OC(C)=O)[C@H](OC(C)=O)[C@H]4OC(C)=O)[C@@H]3[C@](O)(COC(C)=O)[C@@H]2O)cc1` [Decoy372], for which the Type result was “Inactive (Decoy)”.

`COc1ccc(C(=O)O[C@H]2[C@@H]3C=CO[C@H](O[C@@H]4O[C@H](COC(C)=O)[C@@H](OC(C)=O)[C@H](OC(C)=O)[C@H]4OC(C)=O)[C@@H]3[C@](O)(COC(C)=O)[C@@H]2O)cc1` [Decoy373]: the Type entry was “Inactive (Decoy)”.

On to `O=C(CCN(Cc1ccco1)S(=O)(=O)c1ccc(Cl)cc1)NNC(=O)Nc1ccc(OC(F)(F)F)cc1` [Decoy374], for which the Type result was “Inactive (Decoy)”.

Turning to `COc1ccc(C(=O)N/C(=C\c2cn(S(=O)(=O)N(C)C)c3ccccc23)C(=O)NCCN2CCOCC2)cc1OC` [Decoy375], the Type entry is listed as “Inactive (Decoy)”.

Turning to `NC(=O)CSc1nnc(NC(=O)CSc2nnc(N/N=C/c3cccc4ccccc34)n2N)s1` [Decoy376], the Type result is listed as “Inactive (Decoy)”.

Consider `O=C(NCCCN1CCOCC1)C(C(=O)NCCCN1CCOCC1)c1ncc(C(F)(F)F)cc1Cl` [Decoy377], for which the Type result is on record as “Inactive (Decoy)”.

On to `CC(C)CNC(=O)c1ccc2c(=O)n(C(C)C)c3nn(CC(=O)Nc4ccc(F)cc4)c(=O)n3c2c1` [Decoy378], for which the Type result is “Inactive (Decoy)”.

With `COc1cc(/C=N/Nc2nnc(SCC(=O)Nc3ccc(C)cc3C)n2N)cc(OC)c1OC` [Decoy379], the Type entry is reported as “Inactive (Decoy)”.

With `C=CCn1c(SCC(=O)Nc2sc(C(N)=O)c(C)c2C(=O)OC)nnc1-c1ccc(N(C)C)cc1` [Decoy380], the Type result is “Inactive (Decoy)”.

In the case of `CC(=O)N[C@@H]1[C@H]([C@H](O)[C@H](O)CO)O[C@@](O[C@H]2[C@@H](O)[C@@H](O[C@@H]([C@@H](O[C@@H]3O[C@@H](C)[C@@H](O)[C@H](O)[C@@H]3O)[C@H](O)C=O)[C@H](O)CO)O[C@@H](CO)[C@H]2O)(C(=O)O)C[C@@H]1O` [Decoy381], the Type entry is reported as “Inactive (Decoy)”.

As to `CC(=O)N[C@@H]1[C@H]([C@H](O)[C@H](O)CO)O[C@@](O[C@H]2[C@@H](O)[C@@H](O[C@@H]([C@@H](O[C@@H]3O[C@@H](C)[C@H](O)[C@H](O)[C@@H]3O)[C@H](O)C=O)[C@H](O)CO)O[C@@H](CO)[C@H]2O)(C(=O)O)C[C@@H]1O` [Decoy382], the Type result was “Inactive (Decoy)”.

`Nc1ccc(/N=N\c2ccc3cc(S(=O)(=O)O)c(/N=N/c4ccc(/N=N/c5ccc(N)cc5N)c(S(=O)(=O)O)c4)c(O)c3c2)c(N)c1` [Decoy383]: the Type result is given as “Inactive (Decoy)”.

As for `NCCCCCCNc1nc2c(N)ncnc2n1[C@H]1O[C@@H](CO[P@](=O)(O)O[P@](=O)(O)OP(=O)(O)O)[C@@H](O)[C@H]1O` [Decoy384], the Type entry was “Inactive (Decoy)”.

In the case of `COc1cc(NC(=S)/N=C(/NCCCN2CCOCC2)Nc2nc(C)cc(C)n2)cc(OC)c1OC` [Decoy386], the Type result is recorded as “Inactive (Decoy)”.

`O=C(O)c1ccccc1NS(=O)(=O)c1ccc(NCCCN2CCOCC2)c([N+](=O)[O-])c1` [Decoy387]: the Type entry is “Inactive (Decoy)”.

In the case of `COc1cc(NC(=O)COC(=O)c2cc(OC)c(OC)cc2NC(=O)c2ccco2)cc(OC)c1` [Decoy388], the Type result is listed as “Inactive (Decoy)”.

In the case of `[H]/N=C1/[C@@H](C)[C@@H](O)[C@@](C)(O)[C@@H](CC)OC(=O)[C@H](C)[C@H](O[C@@H]2C[C@@](C)(OC)[C@H](O)[C@H](C)O2)[C@@H](C)[C@H](O[C@H]2O[C@@H](C)C[C@@H](N(C)C)[C@H]2O)[C@@](C)(O)C[C@@H]1C` [Decoy389], the Type entry was “Inactive (Decoy)”.

As to `Cc1n[nH]c2nc(SCC(=O)NCCc3ccc(S(N)(=O)=O)cc3)[n+](-c3ccc(Br)cc3)c(N)c12` [Decoy390], the Type entry was “Inactive (Decoy)”.

Consider `NS(=O)(=O)c1ccc(NC(=O)CSc2ccc(NC(=O)c3cccc([N+](=O)[O-])c3)cc2)cc1` [Decoy391], for which the Type entry is “Inactive (Decoy)”.

Take `COc1cc2cc(Oc3ccc(CCC(=O)O)c(O[C@@H]4O[C@H](CO)[C@@H](O)[C@H](O)[C@H]4O)c3)c(=O)oc2cc1O` [Decoy393]: the Type result was “Inactive (Decoy)”.

Regarding `COC(=O)c1sc(NC(=O)c2ccc(C(=O)Nc3sc(C(=O)OC)c(C)c3C(=O)OC)cc2)c(C(=O)OC)c1C` [Decoy394], the Type result is reported as “Inactive (Decoy)”.
